{"source": "paper PMC11570497", "about": "(Nature Plants, 2024)", "key": {"[1]": {"tested_on": "leaf discs of N. benthamiana", "assay_type": "cell-based, Nicotiana benthamiana", "details": "n = 6"}, "[2]": {"details": "n = 8"}, "P69B–His": {"tested_on": "P69B–His", "experiment": "purified P69B–His", "details": "tomato, 21 °C, up to 20 min"}, "[3]": {"experiment": "AF of sbt5.2 mutant plants", "details": "Nicotiana benthamiana, 21 °C, up to 20 min"}, "SBT5.2a–His": {"tested_on": "SBT5.2a–His", "assay_type": "biochemical, Nicotiana benthamiana", "details": "different concentrations of SBT5.2a–His; 100 nM csp22; 45 minutes; read-out ROS burst on six-week-old leaf discs; n = 6", "description": "Four-week-old N. benthamiana leaves were infiltrated with a 1:1 mixture (final OD600 = 0.5 for each) of A. tumefaciens GV3101 containing the silencing suppressor P19 and pPB097 or pJP008. AF containing SBT5.2a–His or P69B–His was extracted six days after infiltration and purified as previously described[44],[45].\nThe ROS burst assay was performed as previously described[43] except that L-012 (Wako Chemical) was used instead of luminol and the diameter of leaf discs used here was 4 mm rather than 6 mm. Briefly, after incubation in water overnight, one leaf disc (4 mm in diameter) was added to 100 µl of solution containing 25 ng µl^−1 L-012, 25 ng µl^−1 HRP and specified elicitor treatments. […] After incubation, 25 ng µl^−1 L-012 and 25 ng µl^−1 HRP were added to the AFs. Chemiluminescence was measured immediately with an Infinite M200 plate reader (Tecan) every minute for one hour."}, "[4]": {"experiment": "AF from WT N. benthamiana", "details": "Nicotiana benthamiana, room temperature, up to 60 min"}}, "note": "“Also recorded” adds a separate entry of the source. Where no end group is shown, it is not given here. The star is where a group is joined. Dabcyl = CN(C)c1ccc(N=Nc2ccc(C(=O)*)cc2)cc1; EDANS = O=S(=O)(O)c1cccc2c(NCCN*)cccc12"}
{"molecule": "O=S(=O)(F)Cc1ccccc1", "note": "[PMSF]", "values": [{"measurement": "block of CspD perception (ROS burst) by subtilase inhibitor", "setting": "[1]", "value": "unable to block CspD perception"}]}
{"molecule": "DTGTVKWFNTSKGFGFISRDSG [csp22 PSPTO3984]", "values": [{"measurement": "speed of inactivation/degradation in AF of WT plants", "setting": "[2]", "value": "more quickly degraded than that of CspD"}]}
{"molecule": "Dabcyl-VKWFNNAK-{EDANS}", "values": [{"measurement": "not cleaved", "setting": "P69B–His", "value": "not cleaved by purified P69B–His"}, {"measurement": "not cleaved", "setting": "[3]", "value": "no longer cleaved in AF of sbt5.2 mutants"}]}
{"molecule": "LNGKVKWFNNAKGYGFILEDGK [csp22]", "values": [{"measurement": "inactivation of csp22 elicitor activity by purified SBT5.2a–His", "setting": "SBT5.2a–His", "value": "dose-dependent inactivation"}]}
{"molecule": "MLNGKVKWFNNAKGYGFILEDGKPDEDLFAHYSAIQMDGYKTLKAGQPVRFEIIQGPKGLHAVNIQSSLAKIGEPVKSAHAHTPEHAHA", "values": [{"measurement": "cleaved bond", "setting": "[4]", "value": "F-N, first_seen, 15 min; also recorded: L-K, first_seen, 15 min"}]}
{"molecule": "QTGTVKWFNDEKGFGFITPQSG [csp22 PSPTO4145]", "values": [{"measurement": "speed of inactivation/degradation in AF of WT plants", "setting": "[2]", "value": "slower than that of CspD"}]}
